Read-outs that look alike come from different tables or passages of the source.
How the values were obtained:
human M1 receptor = molecular target: T1, human M1 receptor (Homo sapiens, UniProt P11229); assay: M1-receptor functional agonist assays (pERK1/2 and calcium mobilisation) for hits and SAR; type: cell-based
T1 construct: expressed in transfected cells
T1 sequence (P11229 1-460): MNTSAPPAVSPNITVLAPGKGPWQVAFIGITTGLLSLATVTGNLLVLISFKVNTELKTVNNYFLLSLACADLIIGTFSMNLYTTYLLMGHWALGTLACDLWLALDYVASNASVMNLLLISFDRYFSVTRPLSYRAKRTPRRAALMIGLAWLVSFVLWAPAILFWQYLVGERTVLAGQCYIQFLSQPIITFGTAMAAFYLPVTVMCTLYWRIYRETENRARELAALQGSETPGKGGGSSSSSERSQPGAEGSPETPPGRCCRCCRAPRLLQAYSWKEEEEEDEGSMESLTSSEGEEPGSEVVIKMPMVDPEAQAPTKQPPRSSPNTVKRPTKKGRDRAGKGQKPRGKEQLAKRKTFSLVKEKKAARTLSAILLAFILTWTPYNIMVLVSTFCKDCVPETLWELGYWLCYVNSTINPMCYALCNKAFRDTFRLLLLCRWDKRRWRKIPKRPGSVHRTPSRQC

non-human primates = assay: Safety clinical signs, non-human primates; type: in vivo
[1] = Non-human primate exposure; type: in vivo, non-human primates; conditions: for Predicted brain exposure Cu,br: non-human primates
[2] = Dog plasma and CSF exposure after subcutaneous dosing; type: in vivo; conditions: sc; for concentration at 4 h: CSF, aged beagle, 4 h post-dose, read-out: Measured Ccsf concentration
M4-receptor = molecular target: T2, M4-receptor (Homo sapiens, UniProt P08173); assay: M4-receptor functional agonist assay; type: cell-based; set-up: expressed in transfected cells
T2 sequence (P08173 1-479): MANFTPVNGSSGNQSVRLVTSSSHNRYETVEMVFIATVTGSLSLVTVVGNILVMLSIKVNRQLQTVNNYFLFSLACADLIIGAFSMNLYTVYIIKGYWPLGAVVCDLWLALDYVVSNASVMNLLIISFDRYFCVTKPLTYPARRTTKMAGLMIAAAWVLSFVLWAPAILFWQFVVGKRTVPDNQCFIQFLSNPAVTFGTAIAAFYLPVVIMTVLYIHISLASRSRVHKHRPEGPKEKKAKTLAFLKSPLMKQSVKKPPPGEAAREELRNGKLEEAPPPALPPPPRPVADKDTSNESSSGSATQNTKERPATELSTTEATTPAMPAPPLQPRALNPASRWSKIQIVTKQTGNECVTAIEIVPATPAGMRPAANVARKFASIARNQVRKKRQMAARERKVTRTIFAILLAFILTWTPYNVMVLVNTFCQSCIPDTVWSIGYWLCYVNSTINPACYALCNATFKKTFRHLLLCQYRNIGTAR
Description: (§1) Functional assays were performed using the Alphascreen Surefire phopho-ERK1/2 assay. […] Once adhered, cells were serum starved overnight. Agonist stimulation was performed by the addition of […] agonist to the cells for a pre-optimized 5 min period (37°C). Media was removed and 50 μl of lysis buffer added. After 15 min a 4 μl sample was transferred to a 384-well plate and 7 μl of detection mixture added.

aged beagle dogs = assay: Delayed non-matching to position (DNMP) in aged beagle dogs; type: in vivo, dog; conditions: aged beagles
Description: Animals were acclimatised in the testing facility for at least 3 months. During baseline days (days −12 to −8), 50 dogs underwent DNMP testing once daily using delays of 20 and 90 s equally dispersed over 12 trials per session.
These 40 subjects were tested on the DNMP using delays of 5, 55 and 105 s equally dispersed over 18 trials per session over five once-daily sessions (days −6 to −2). Therefore, baseline testing was conducted for a total of 10 days.
These dogs were then allocated into 5 groups, balanced for mean baseline performance accuracy at the longest delays (n = 8 per group). […] Daily treatment administration began on day 0, and dogs were tested once daily on the DNMP at the same delays employed at baseline for a minimum of 10 days. Each test consisted of two phases; in phase one, the dog is presented with an object over one of the three food wells. After the dog moves the object and obtains the food reward beneath, the tray is removed from the dog’s sight and the delay is initiated. The second phase occurs after the delay and consists of presenting the dog with two identical objects to that used in the first phase. One is in the same position as the first phase and the other covers a food reward in one of the two remaining food wells.

[3] = system: Tg37 hemizygous mice inoculated with RML prions; type: in vivo, mouse; conditions: prion mice 9 w.p.i., 30 mg/kg i.p., 24 h after training
Wistar rats = assay: Novel object recognition; type: in vivo, rat
Description: Male adult Wistar rats (Harlan, UK; approximately 11 weeks of age) were handled for two days prior to the experiment. […] Donepezil (0.1 mg/kg) and galanthamine (3 mg/kg) were administered via intraperitoneal injection (in saline) 60 min prior to training. Following a 10-min habituation period, each rat was placed into the test arena comprising an open-field arena in the presence of two identical plastic shapes and allowed to explore for 5 min. The rat was then returned to its home cage. After 24 hours, the rat was returned to the test arena in the presence of one familiar object, and one novel object. The time exploring each object was recorded using image analysis software (Ethovision XT, Noldus, UK).

dogs = assay: GLP cardiovascular safety pharmacology telemetry in dogs
C57BL/6J mice = assay: Scopolamine-induced deficit in contextual fear conditioning; type: in vivo, mouse; conditions: mice, 10, 30 or 100 mg/kg i.p. with scopolamine 1.5 mg/kg i.p.
Description: C57BL/6J male mice (aged 8−12 weeks) were acclimatized to the behavioral testing suite at least 2 hours prior to the test. […] Mice were placed in the conditioning chamber (ANY-maze Fear Conditioning System; Stoelting, Dublin, Ireland); after a 2-min adaptation period, they received three tone/foot shock pairings where the foot shock (un-conditioned stimulus; 2 s; 0.4 mA) always co-terminated with a tone (conditioned stimulus; 2.8 kH; 85 dB; 30 s). The conditioned stimulus−unconditioned stimulus pairings were separated by 1-min intervals. After the mice completed training, they remained in the conditioning chamber for 1 min and were then returned to their home cages. The next day, the mice were placed back in the conditioning chamber, and time spent immobile was recorded for 3 min to assess context-dependent learning. Data were analyzed using ANY-maze software (Stoelting).

panel of 62 GPCRs = assay: DiscoverX neurological and psychiatric GPCR selectivity panel; type: cell-based; conditions: 10 μM
M3-receptor = molecular target: T3, M3-receptor (Homo sapiens, UniProt P20309); assay: M3-receptor functional agonist assay; type: cell-based
T3 construct: expressed in transfected cells
T3 sequence (P20309 whole entry): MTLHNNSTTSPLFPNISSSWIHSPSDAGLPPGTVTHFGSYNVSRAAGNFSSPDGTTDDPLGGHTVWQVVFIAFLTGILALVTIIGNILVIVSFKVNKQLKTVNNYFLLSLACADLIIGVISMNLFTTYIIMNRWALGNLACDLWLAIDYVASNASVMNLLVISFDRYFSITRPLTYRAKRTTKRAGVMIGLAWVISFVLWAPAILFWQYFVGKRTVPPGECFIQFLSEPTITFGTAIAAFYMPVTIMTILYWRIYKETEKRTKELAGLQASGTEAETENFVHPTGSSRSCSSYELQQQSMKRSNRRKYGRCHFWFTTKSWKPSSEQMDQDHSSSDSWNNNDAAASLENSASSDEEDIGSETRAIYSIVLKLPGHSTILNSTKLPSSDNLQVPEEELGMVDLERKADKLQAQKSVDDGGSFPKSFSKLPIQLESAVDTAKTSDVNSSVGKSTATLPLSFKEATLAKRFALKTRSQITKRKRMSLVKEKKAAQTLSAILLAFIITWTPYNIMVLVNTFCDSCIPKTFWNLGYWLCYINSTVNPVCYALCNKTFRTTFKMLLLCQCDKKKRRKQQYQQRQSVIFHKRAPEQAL
Description: as §1

CCOC(=O)N1CCC[C@H](N2CCC(C(=O)NC3(C)CCC3)CC2)CC1 [HTL9936, ethyl (S)-4-(4-((1-methylcyclobutyl)carbamoyl)piperidin-1-yl)azepane-1-carboxylate]
EC50 (human M1 receptor): 32 nM | Cu,pl without cholinergic clinical signs (non-human primates): 991 nM | Plasma exposure without cholinergic clinical signs (non-human primates): ≤ 557 ng/mL | Predicted brain exposure Cu,br ([1]; 0.3 mg/kg subcutaneous): 20 nM | Predicted brain exposure Cu,br ([1]; 3 mg/kg subcutaneous): 198 nM | Oral bioavailability ([1]; primates): low oral bioavailability | concentration at 4 h ([2]; 0.3 mg/kg s.c.): 13 nM | concentration at 4 h ([2]; 1 mg/kg s.c.): 48 nM | concentration at 4 h ([2]; 2 mg/kg s.c.): 128 nM | Cmax ([2]; plasma, aged beagle DNMP study, 0.3 mg/kg subcutaneous, read-out: Cmax plasma exposure at minimal effective dose): 58 ng/mL | EC50 (M4-receptor): 398 nM | M4-receptor agonist activity (M4-receptor): partial agonist activity | Visual-spatial memory (DNMP performance) (aged beagle dogs; 0.3 mg/kg and 1 mg/kg s.c.): Significant improvements in visual-spatial memory | Effect compared with donepezil (aged beagle dogs; 1 mg/kg s.c.): equivalent to that of donepezil | Immobility level on re-exposure to training environment [3]: ~ 34% | Effective dose (Wistar rats; rat novel object recognition, p.o.): 10 mg/kg | Effect compared with positive controls donepezil and galantamine (Wistar rats; rat, 10 mg/kg p.o.): significantly better than the positive controls | Time for hemodynamic changes to return to control levels after end of i.v. infusion (dogs; dogs): ≤ 30 min | Blood pressure and heart rate (dogs; telemetered dogs, i.v. infusion): dose-dependent profile of HTL9936 effects on blood pressure, but not heart rate | Effect on scopolamine-induced fear learning deficit (C57BL/6J mice): dose-dependent restoration of learning and memory responses | Agonism at other receptors (panel of 62 GPCRs): < 25% | EC50 (M3-receptor): > 20000 nM | M3-receptor agonist activity (M3-receptor): no detectable agonism

— PMC7616177, “From structure to clinic: Design of a muscarinic M1 receptor agonist with the potential to treat Alzheimer’s disease” (Cell, 2021)
